Measurements: patent US20050187239A1 (priority 2002, published 2005)

Tested on: Male CD-1 mice
Details: mouse, in vivo

Structure (SMILES) | ED50 Value, Combination (Total Drug Dose), Additive (predicted) [mg/kg s.c.] | ED50 Value, Combination (Total Drug Dose), Observed [mg/kg s.c.] | ED50 Value, Drug alone | isobolographic analysis: combination with methadone versus composite additive line (FIG. 3) | interaction with a fixed dose of L-methadone (FIG. 1A) (sc) | further results
COc1ccc2c3c1O[C@H]1[C@@H](O)C=C[C@H]4[C@@H](C2)N(C)CC[C@@]341 [Codeine, codeine] | 2.79 ± 0.22 | 0.74 ± 0.10 | 3.7 ± 0.4 mg/kg s.c. | significantly greater than the composite additive line | greater than additive responses | 
CCC(=O)C(C[C@H](C)N(C)C)(c1ccccc1)c1ccccc1 [D-Methadone, D-methadone] |  |  | >>4 mg/kg s.c. |  |  | analgesic effect alone: did not show any effects alone; effect on morphine responses when given together (FIG. 2): did not influence morphine responses
CCC(=O)C(C[C@@H](C)N(C)C)(c1ccccc1)c1ccccc1 [L-Methadone, L-methadone] |  |  | 1.9 ± 0.2 mg/kg s.c. |  |  | ED80 dose: 4 mg/kg s.c.; effect on morphine responses when given together (FIG. 2): did reveal synergy; interaction with morphine (FIG. 1B) (sc): greater than additive interactions
CN1CC[C@]23c4c5ccc(O)c4O[C@H]2[C@@H](O[C@@H]2O[C@H](C(=O)O)[C@@H](O)[C@H](O)[C@H]2O)C=C[C@H]3[C@H]1C5 [M6G, morphine-6β-glucuronide] | 2.80 ± 0.21 | 1.03 ± 0.34 | 3.7 ± 0.4 mg/kg s.c. | significantly greater than the composite additive line | greater than the sum of their independent actions | 
CN1CC[C@]23c4c5ccc(O)c4O[C@H]2[C@@H](O)C=C[C@H]3[C@H]1C5 [Morphine, morphine] | 3.11 ± 0.32 | 0.83 ± 0.12 | 4.7 ± 1.1 mg/kg s.c. | significant greater than the composite additive line | greater than the sum of their independent actions | analgesic activity of the combination versus additivity (FIG. 4): significantly greater than additive
CCOC(=O)C1(c2ccccc2)CCN(C)CC1 [meperidine] |  |  |  |  | additive interactions | 
COc1ccc2c3c1O[C@H]1C(=O)CC[C@@]4(O)[C@@H](C2)N(C)CC[C@]314 [oxycodone] |  |  |  |  | additive interactions | 
CN1CC[C@]23c4c5ccc(O)c4O[C@H]2C(=O)CC[C@@]3(O)[C@H]1C5 [oxymorphone] |  |  |  |  | additive interactions | 
